Where a SMILES comes first, the peptide text is derived from it.
What was measured:
Thymoma EL-4 cells = Thymoma EL-4 cells incubated with peptide and oxyurea, transplanted to mice: tumor growth and survival; type: in vivo, C57B1 mice
Protocol: The Thymoma EL-4 cells were extracted from the abdomen cavity of C57B1 mice at the 7th day after transplantation. The suspension was washed by centrifugation in the medium RPMI. Then the cells were resuspended in the growth medium (RPMI+10% of embryo serum+0.1% penicillin/streptomycin) and were split in culture flasks 5 ml each ([…] per flask). 2 mg of the preparation were added (20 μl) to each probe. After 18 hours of incubation (37 degrees Celsius CO2), OU was added to the half of probes (1 mg per 5 ml). Incubation was done for 1 more hour in the same conditions and then cells were washed out by centrifugation in the medium RPMI. The precipitated cells were resuspended in calculation 1 ml per 0.2 ml of RPMI medium and then transplanted to the mice C57B1 under the back skin.
The taking of the measurements of the size of the tumor was started after the knot became visible. The tumor was measured every day until it was impossible to measure. The survival ability of the mice was examined during 60 days after transplantation. Mice that survived after this period were considered to be cured. Each experimental group consisted of 6 animals.

CFU-S = experiment: Spleen colony formation from RAMBS-treated bone marrow in lethally irradiated mice; type: in vivo, (CBA×C57BL)F1 female mice; conditions: RAMBS-treated bone marrow + preparation, lethally irradiated mice
Excerpt: (CBA×C57BL)F1 female mice (n=2500), 2-months old, weighing about 20 g, were used in the experiment.
As is known, there is a close relationship between T-cells and hemopoietic progenitors. It was shown that, along with colony-forming units of spleen (CFU-S), thymocytes participate in colony formation of spleens of irradiated mice by controlling proliferation of the hemopoietic progenitor cells. The fact was established in a test system, which allowed a selective removal of accessory T-cells from bone marrow with the help of rabbit antimouse brain antiserum (RAMBS) and their substitution with other factors. Aliquots (0.1 ml) of bone marrow suspension (2×10^7 cells), RAMBS, and medium 199 were mixed and incubated for 1 hour at 37° C. Then the cells were washed with centrifuging, resuspended and injected to lethally irradiated mice.
According to the aforesaid scheme, instead of thymocytes mice received the peptide, H-Ile-Glu-Trp-OH injections 30 minutes before the injections of RAMBS-treated bone marrow suspension.

CFU-S-8 and CFU-S-12 = experiment: Cytostatic (Cytosine-Arabinoside)-induced cytopenia: karyocytes, CFU-S-8, CFU-S-12 in bone marrow; type: in vivo, mice; conditions: donor bone marrow; CA 20 mg/kg i.p. once; N 10 μg/kg once daily, three injections
Protocol: Used as a cytostatic, Cytosine-Arabinoside (CA) was intraperitoneally injected to donor mice once in the dose of 20 mg/kg. The peptide was given according to the following scheme: 10 μg/kg once daily, three injections starting from the first hour after CA. Intact mice received H-Ile-Glu-Trp-OH in the same doses and according to the same schedule. On day 8 after the cytostatic injection, determined were karyocyte count in the donor bone marrow and the content of hemopoietic progenitors of different polipotencies: committed CFU-S-8 and CFU-S-12. CFU-8 are committed stem cells which later undergo differentiation. CFU-12 are the polypotent cells, from which stem cells can be recruited (i.e. they maintain the pool of stem cells). This is a slowly proliferating cell population, mainly in G phase. That is why it is important to evaluate the effect of a preparation on the pools of both committed (CFU-8) and polypotent (CFU- 12) cells. To this end, bone marrow was extracted from donor's femoral bones and injected to lethally irradiated recipients. After the cell injections, every test group was divided into 2 subgroups: some animals were killed on day 8, the other on day 12. Spleens were taken out and the colonies were counted. The tests were carried out on 105 mice.

[1] = 60 days after transplantation of treated EL-4 cells

For `NC(=O)NO` [OU, oxyurea, reference compound], the “% of Survival” value (Thymoma EL-4 cells; [1]) was 0%, the “Number of Survived Mice From 6” value (Thymoma EL-4 cells; [1]) was 0/6 and the “delay in the tumor growth” value (Thymoma EL-4 cells; intact tumor cells treated with OU (FIG. 3)) was roughly 12 days. For the same compound, the “increase in lifetime versus control” value (Thymoma EL-4 cells; mice with Thymoma EL-4) was 5 days.

For `N[C@@H](CCC(=O)O)C(=O)N[C@@H](Cc1c[nH]c2ccccc12)C(=O)O` [Thymogen, H-Glu-Trp-OH, reference compound] (H-Glu-Trp-OH), the “Average Colony Count” value (CFU-S) was 2.9+/-0.3.

`Nc1ccn([C@@H]2O[C@H](CO)[C@@H](O)[C@@H]2O)c(=O)n1` [CA, Cytosine-Arabinoside, reference compound] was tested, and the “Day 8 COUNT CFU-S-8” value (CFU-S-8 and CFU-S-12) was 1270 ± 53, the “Day 8 COUNT CFU-S-12” value (CFU-S-8 and CFU-S-12) was 1244 ± 71 and the “Day 8 COUNT Karyocytes” value (CFU-S-8 and CFU-S-12) was 17.5 ± 0.8 × 10^6.
